For experiment [1], the system named is SKOv3 xenograft. The experiment is described as follows: SKOv3 subcutaneous xenograft, Compound B, carboplatin and paclitaxel. The class given is in vivo, mice. The following applies: SKOv3 s.c.; 6 weeks; Compound B 40 mg/kg. How it is done:
After treatment as indicated in (A) for three weeks, mice were weighed, and intraperitoneal nodules were excised and weighed. […] Mice were treated with single, double, or triple agents for 6 weeks. Tumor was measured once a week until the tumor burden in control group reached maximum allowance. The graphs indicate the mean±standard deviation. Statistical significance is indicated by *p<0.05, **p<0.01, and ***p<0.0001.
Six-week-old female athymic nu/nu mice were purchased from Envigo. Experiments were reviewed and all procedures were performed according to an animal protocol approved by the Institutional Animal Care and Use Committee of UT MD Anderson Cancer Center. […] Carboplatin was administrated i.p. once a week at a dose of 25 mg/kg. […] Carboplatin was treated at a dose of 30 mg/kg once a week for six weeks. […] At end of six weeks, the mice were sacrificed by CO2. The mice were dissected immediately after death and the tumors were collected and weighed.
OVCAR8 cells were injected intraperitoneally (ip) into nu/nu mice. Treatment started 7 days post injection. […] At the conclusion of the treatment, the mice were sacrificed, and the tumor was dissected and weighed (FIG. 23A). […] The tumor volume was measured at indicated time points (FIG. 23D).

The test system of another experiment is A2780-CP20. As to the kind of experiment: Cell viability, cisplatin-resistant sub-line. The class given is cell-based. To be noted: 96 h. As for the experimental part:
(§1) Cisplatin-resistant A2780-CP20 and cisplatin-sensitive A27801 PAR sub-lines were plated at a density of 2000/well in 96-well plates, then treated with different concentrations of carboplatin for 96 h as indicated. Cell viability was measured with a bioluminescence assay and the IC50 was calculated. […] (C, D).
(§2) Cells were seeded in 6 replicates in black-walled and clear-bottomed 96-well plates and incubated overnight. […] The CellTiter-Glo luminescent cell viability assay (Promega) was used to evaluate the effect of treatment on cancer growth. This experiment was performed several times to optimize the concentration. […] GraphPad Prism 8 was used to generate growth curves and calculated IC50. CalcuSyn was used to evaluate additive or synergistic interactions, a combination Index (CI value).
(§3) Platinum resistance is commonly seen in ovarian cancer patients with recurrent disease. There is currently no standard chemotherapy for platinum-resistant recurrence. Targeting DNA damage and repair is an attractive therapeutic approach in platinum-resistant ovarian cancer.

Another experiment relates to A2780-PAR. The experiment is described as follows: Cell viability, cisplatin-sensitive sub-line. To be noted: 96 h. It counts as cell-based. As for the experimental part: as §1, §2, §3
The subject of experiment [2] is SIK2-expressed SKOV3 cells. The experiment is described as follows: Cell viability assessment of SKOV3. The class given is cell-based.
Another experiment has as its system MDA-MB-231 xenograft. The experiment is described as follows: MDA-MB-231 mammary fat pad xenograft, Compound B and olaparib. To be noted: 50 mg/kg, oral, 5 weeks. The class given is in vivo, mice.
The next experiment concerns SKOv3 cells. The following applies: RNA-seq.
In a further experiment the test system is BT549. The experiment is described as follows: CellTiter-Glo cell viability dose response. The following applies: Homo sapiens, BT-549, 96 h. The class given is cell-based. How it is done: (§4) Luminescence was measured on a Synergy2 microplate reader (BioTek) after 10 min of shaking. Dose-response experiments were plotted and IC50 values were calculated using nonlinear curve fitting with normalized response and variable slope by GraphPad Prism 8. Drug interaction of the two-drug combination using a constant ratio were processed and a Combination Index (CI) was calculated using CalcuSyn 2.0 (BIOSOFT). CI<1 indicates synergism, CI=1 indicates additive effect and CI>1 indicates antagonism.
On the technique in general: ATP-based viability assays read luminescence as a measure of living cells.

The next experiment concerns NOE72. The experiment is described as follows: CellTiter-Glo cell viability dose response. The following applies: 96 h. It counts as cell-based. As for the experimental part: as §4
The next experiment deals with DOV13. As to the kind of experiment: CellTiter-Glo cell viability dose response. The class given is cell-based. The following applies: Homo sapiens, DOV13, 96 h. As for the experimental part: as §4
In another experiment the test system is SKOv3. As to the kind of experiment: CellTiter-Glo cell viability dose response. It counts as cell-based. The following applies: Homo sapiens, SK-OV-3, 96 h. As for the experimental part: as §4
Another experiment concerns IGROV1. As to the kind of experiment: CellTiter-Glo cell viability dose response. To be noted: Homo sapiens, IGROV-1, 96 h. It counts as cell-based. As for the experimental part:
as §4

A further experiment concerns OC316. The experiment is described as follows: CellTiter-Glo cell viability dose response. It counts as cell-based. To be noted: Homo sapiens, 96 h. How it is done: as §4
Another experiment has as its system MDA-MD-231. The experiment is described as follows: CellTiter-Glo cell viability dose response. It counts as cell-based. To be noted: Homo sapiens, 96 h. How it is done: as §4
A further experiment has as its system MDA-2774. The experiment is described as follows: CellTiter-Glo cell viability dose response. To be noted: Homo sapiens, 96 h. It counts as cell-based. How it is done: as §4
The test system of another experiment is HCC5032. As to the kind of experiment: CellTiter-Glo cell viability dose response. To be noted: 96 h. It counts as cell-based. How it is done:
as §4

A further experiment concerns HMEC16620. As to the kind of experiment: CellTiter-Glo cell viability dose response. The class given is cell-based. The following applies: Homo sapiens, 96 h. As for the experimental part:
as §4

The next experiment deals with OAW28. The experiment is described as follows: CellTiter-Glo cell viability dose response. It counts as cell-based. The following applies: Homo sapiens, OAW-28, 96 h. As for the experimental part: as §4
The next experiment relates to OVCAR3. The experiment is described as follows: CellTiter-Glo cell viability dose response. It counts as cell-based. To be noted: Homo sapiens, OVCAR-3, 96 h. How it is done: as §4
In another experiment the test system is OV90. As to the kind of experiment: CellTiter-Glo cell viability dose response. To be noted: Homo sapiens, OV-90, 96 h. The class given is cell-based. As for the experimental part:
as §4

The subject of a further experiment is OVCAR8. The experiment is described as follows: CellTiter-Glo cell viability dose response. It counts as cell-based. The following applies: Homo sapiens, OVCAR-8, 96 h. How it is done: as §4
For a further experiment, the system named is MEF2 promoter activity. The experiment is described as follows: MEF2 luciferase reporter assay. The following applies: ovarian and breast cancer cell lines; time- and dose-dependent. It counts as cell-based. As for the experimental part: (§5) To identify the mechanism(s) by which SIK2 inhibition decreases DNA DBS repair, it was tested whether SIK2 inhibitors decrease the phosphorylation of class IIa HDACs, which control its nuclear cytoplasmic shuttling and consequently its association with DNA. […] Next, it was investigated whether SIK2 inhibitors increase nuclear localization of HDAC5. SIK2 inhibition increased nuclear localization of HDAC5 judged by increasing nuclear florescence intensity (FIG. 7B and FIG. 8A) and the nuclear fraction of HDAC5 expression (FIG. 8B). […] Therefore, it was hypothesized that SIK2 inhibition may block MEF transcription factor activity. […] Next, it was examined whether SIK2 regulation of MEF2 activity was HDAC4/5-dependent, increasing its binding to MEF2D protein. […] These observations are consistent with the hypothesis that SIK2 inhibition increases nuclear localization of HDAC4/5, blocking MEF2 transcription (FIG. 8E).
On the technique in general: In a reporter assay the amount or activity of a reporter protein is the signal.

Experiment [3] concerns SKOv3 xenograft. The experiment is described as follows: SKOv3 subcutaneous xenograft, SIK2 inhibitor and olaparib. It counts as in vivo, mice. The following applies: SKOv3 s.c.; oral, five times per week, 4 weeks.
Experiment [4] deals with SKOv3, OVCAR8, HCC5032, or MDA-MB-231 cells. The experiment is described as follows: DNA damage: γ-H2AX staining and comet assay with olaparib. It counts as cell-based. To be noted: SKOv3, OVCAR8, HCC5032, MDA-MB-231.
Method: Cells were trypsinized and resuspended at 2×10^5/mL in cold PBS without Ca^2+ and Mg^2+. Cells were mixed with pre-warmed comet agarose at 1:10 (v/v) ratio. 10 uL of cell agarose mixture was plated onto comet slides pre-coated with 75 uL of agarose and chilled at 4° C. for 15 min to set. Cells were lysed in 25 mL of Lysis buffer at 4° C. for 2 hrs and washed with alkaline solution (pH 10). Comet slides were electrophoresed in cold alkaline solution at 20V for 15 min. Slides were rinsed with water and dried in 70% ethanol for 5 min. Slides were then stained with Vista Green DNA dye and viewed using an Olympus epifluorescence microscope with a FITC filter. Images were captured using a 20× objective. […] Experiments were run in triplicate and Olive Tail Moment was measured using CaspLab1.2.3β2 software (CaspLab.com). Olive Tail Moment=Tail DNA %×Tail Length. 50-200 Cells were measured for each treatment and experiments were repeated twice independently to ensure reproducibility.
Cells on 22×22 mm coverslips were fixed in 4% formaldehyde in PBS (Thermo Fisher, J19943-K2) and permeabilized with 0.1% Triton X-100 (Sigma, X100) in PBS for 15 min. Cells were blocked with 5% BSA in PBS for 30 min and then stained with antibody overnight at 4° C., followed by secondary antibody and DAPI for 1 hr. […] After 24-hrs incubation, cells were fixed in 4% formaldehyde in PBS. Cells were stained as described above. […] DNA damage visualized by γ-H2AX staining was evaluated by counting nuclear γ-H2AX puncta in each cell. […] After 8 hrs incubation, cells were fixed in 4% formaldehyde in PBS. Cells were stained as described above. Images were captured using an Olympus IX71 microscope and nuclear γ-H2AX puncta in each cells were counted using with Olympus CellSens Dimension software. HDAC5 (CST20458) and γ-H2AX (CST2577) antibodies were purchased from Cell Signaling Technology. Experiments were repeated twice independently to ensure reproducibility and 50-200 cells were counted for each treatment.
Experiment [5] relates to HDAC4 (Ser246)/HDAC5 (Ser256)/HDAC7 (Ser155). As to the kind of experiment: Western analysis of HDAC4/5/7 phosphorylation. It counts as cell-based. The following applies: 4 μM, 24 hrs; nearly all the cell lines tested. How it is done:
as §5
Cells were incubated with and without treatment for the intervals indicated and then cells were incubated in lysis buffer (50 mM Hepes, pH 7.0, 150 mM NaCl, 1.5 mM MgCl2, 1 mM EGTA, 10, 10% glycerol, 1% Triton X-100, 50 mM NaF, 1 mM Na3VO4 1 mM PMSF, 10 μg/mL leupeptin and10 μg/mL aprotinin) on ice for 30 min. […] The protein concentration was assessed using a bicinchoninic acid (BCA) protein assay (Thermo Scientific, 23228). […]

Where two headings read alike, the source gives them in different places.

Method for MDA-MB-231 xenograft: Forty female nu/nu mice were injected with 0.8×10^6 MDA-MB-231 cells into their fourth mammary fat pads. […] Tumors were measured every week as noted above (SKOv3 xenograft models).

As a reminder, the IC50 is the midpoint of a concentration-inhibition curve. `N.N.O=C([O-])C1(C(=O)[O-])CCC1.[Pt+2]` [carboplatin]: the “tumor growth (tumor volume)” value in the experiment on SKOv3 xenograft [1] is “significantly inhibited tumor growth”. The IC50 in the experiment with A2780-CP20 turned out to be 34.9 µM; with A2780-PAR it was 1.1 µM.
Consider `CC(=O)O[C@H]1C(=O)[C@@]2(C)[C@H]([C@H](OC(=O)c3ccccc3)[C@]3(O)C[C@H](OC(=O)[C@H](O)[C@@H](NC(=O)c4ccccc4)c4ccccc4)C(C)=C1C3(C)C)[C@]1(OC(C)=O)CO[C@@H]1C[C@@H]2O` [Paclitaxel, paclitaxel], for which the “Test/Control (%) at drug Concentration [μM]” value in the experiment on MAXF Hs 578T (Table 14, 1.0E+00 μM) worked out at 38%; with MAXF Hs 578T (Table 14, 1.0E−01 μM) it was 44%; in the experiment on MAXF Hs 578T (Table 14, 1.0E−02 μM), 89%; in the experiment on MAXF Hs 578T (Table 14, 3.2E−01 μM) it was 42%; in the experiment with MAXF Hs 578T (Table 14, 3.2E−02 μM), 52%; with MAXF MDA-MB-231 (Table 14, 1.0E+00 μM), 10%. Also, the “Test/Control (%) at drug Concentration [μM]” value in the experiment with MAXF MDA-MB-231 (Table 14, 1.0E−01 μM) turned out to be 17%; with MAXF MDA-MB-231 (Table 14, 1.0E−02 μM), 45%; in the experiment on MAXF MDA-MB-231 (Table 14, 1.0E−03 μM), 110%; in the experiment on MAXF MDA-MB-231 (Table 14, 3.2E−01 μM) it was 14%; with MAXF MDA-MB-231 (Table 14, 3.2E−02 μM), 24%. For the same molecule, the IC50 in [2] (Homo sapiens, SK-OV-3, SK-OV-3, Table 7, paclitaxel combinations) came out at 0.127 µM; in [2] (Homo sapiens, SK-OV-3, SKOV3, Table 5, FIG. 25), 0.039 µM; in experiment [2] (Homo sapiens, SK-OV-3, SKOV3, Table 6, FIG. 26) it was 0.127 µM. Also, the “tumor growth (tumor volume)” value in the experiment with SKOv3 xenograft [1] is on record as “significantly inhibited tumor growth”.
As for `O=C(c1cc(Cc2n[nH]c(=O)c3ccccc23)ccc1F)N1CCN(C(=O)C2CC2)CC1` [Olaparib, olaparib], the “tumor burden / tumor volume” value in the experiment on MDA-MB-231 xenograft is recorded as “remained unchanged”. In addition, the “numbers of transcripts up or down-regulated by ≥2-fold” value with SKOv3 cells turned out to be 3. In addition, the IC50 with BT549 was determined as 13.7 µM; with NOE72, 6.38 µM; with DOV13 it was 32.2 µM; with SKOv3, 55.5 µM; in the experiment on IGROV1, 2.83 µM; in the experiment on OC316 it was 4.91 µM. Besides, the IC50 was found to be 4.47 µM in the experiment on MDA-MD-231; 6.29 µM in the experiment with MDA-2774; 14.5 µM in the experiment with HCC5032; 1.2 µM in the experiment with HMEC16620; 3.66 µM in the experiment on OAW28; 3.79 µM with OVCAR3. Also, the half-maximal inhibitory concentration (IC50) in the experiment with OV90 stood at 8.36 µM; in the experiment with OVCAR8, 6.4 µM. In the experiment on MEF2 promoter activity, the MEF2 promoter activity entry is recorded as “did not”. Moreover, the tumor growth result in the experiment on SKOv3 xenograft [3] was “significantly inhibited tumor growth”. For the same molecule, the “levels of γ-H2AX and tailed DNA” value in [4] is given as “modestly increased”.
For `N.N.[Cl][Pt][Cl]` [Cisplatin, cisplatin], the IC50 amounted to 16.8 µM in experiment [2] (SK-OV-3, Table 9, cisplatin combinations) and 17 µM in [2] (SKOV3, Table 6, FIG. 26, top locked at 100).
On to `COc1c(F)cc(F)cc1-c1c[nH]c2ncc(-c3cnn(C4CCNCC4)c3)cc12` [Compound A, 3-(3,5-difluoro-2-methoxyphenyl)-5-(1-(piperidin-4-yl)-1H-pyrazol-4-yl)-1H-pyrrolo[2,3-b]pyridine], for which the “phosphorylation of HDAC4/HDAC5/HDAC7” value in experiment [5] was “significantly decreased”. The IC50 was 2.02 µM in the experiment on BT549; 5.75 µM in the experiment on NOE72; 2.81 µM in the experiment with DOV13; 1.23 µM in the experiment on SKOv3; 1.08 µM in the experiment with IGROV1; 1.26 µM in the experiment on OC316. Further, the IC50 in the experiment with MDA-MD-231 amounted to 2.37 µM; in the experiment on MDA-2774, 1.08 µM; with HCC5032 it was 2.24 µM; in the experiment on HMEC16620 it was 3.6 µM; in the experiment with OAW28, 1.71 µM; in the experiment on OVCAR3 it was 2.83 µM. For the same molecule, the IC50 with OV90 was determined as 3.87 µM; in the experiment with OVCAR8, 1.4 µM. Also, the “levels of γ-H2AX and tailed DNA” value in experiment [4] was “modestly increased”.

The values above are taken from patent US20220296583A1, “COMPOSITIONS AND METHODS FOR TREATMENT OF OVARIAN AND BREAST CANCER” (Board of Regents, The University of Texas System, priority 2021, published 2022).
